For the test, the target named is T1, human Apo(a) protein (Homo sapiens, UniProt P08519).
T1 sequence (P08519 1053-1693 limits assumed): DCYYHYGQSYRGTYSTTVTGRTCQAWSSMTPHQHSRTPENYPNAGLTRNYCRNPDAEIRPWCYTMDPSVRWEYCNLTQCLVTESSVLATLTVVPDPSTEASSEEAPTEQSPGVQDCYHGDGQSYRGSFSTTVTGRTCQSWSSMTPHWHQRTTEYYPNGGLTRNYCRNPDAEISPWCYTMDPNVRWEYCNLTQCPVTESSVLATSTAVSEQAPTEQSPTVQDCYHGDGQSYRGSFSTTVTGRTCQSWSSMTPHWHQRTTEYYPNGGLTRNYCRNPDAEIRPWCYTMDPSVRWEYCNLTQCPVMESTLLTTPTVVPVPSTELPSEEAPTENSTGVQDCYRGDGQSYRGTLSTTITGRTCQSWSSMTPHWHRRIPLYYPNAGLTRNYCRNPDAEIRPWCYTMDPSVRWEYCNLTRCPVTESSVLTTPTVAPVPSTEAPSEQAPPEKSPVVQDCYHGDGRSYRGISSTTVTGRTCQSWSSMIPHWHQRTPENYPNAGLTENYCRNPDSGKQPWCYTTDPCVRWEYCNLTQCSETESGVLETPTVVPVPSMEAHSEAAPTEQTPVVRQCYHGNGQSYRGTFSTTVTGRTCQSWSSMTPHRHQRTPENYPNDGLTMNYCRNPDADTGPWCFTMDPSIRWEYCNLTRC
Briefly: In vitro Apo(a) binding assay (competitive SPA radioligand binding). The settings on record: competitive binding vs tritium-labeled radioligand 0.52 nM; human Apo(a) containing 17 Kringle repeats; 60 min at RT. The procedure: The in vitro binding affinity of compounds to the intended target human Apo(a) protein were tested in a competitive binding assay. Human Apo(a) protein containing 17 Kringle repeats was affinity purified from conditioned media of transiently transfected HEK-293F cells. All reagents were prepared in assay buffer containing 50 mM Tris-HCl pH 7.4, 0.1% BSA. The binding assay was conducted by adding to each well of a clear-bottom plate 50 μL each of (1) test compound in dilution series (final concentration 0.32˜10000 nM), (2) Apo(a) protein (6 ng/well), (3) re-suspended Wheat Germ Agglutinin Polyvinyltoluene SPA beads (20 mg/mL), and (4) the radioligand, tritium-labeled (2S)-3-[3-[2-oxo-3-[3-(tritritiomethoxy)phenyl]imidazolidin-1-yl]phenyl]-2-[(3R)-pyrrolidin-3-yl]propanoic acid hydrochloride (prepared essentially as described in WO 2020/247429; final concentration 0.52 nM). Plates were incubated for 60 min at RT and counted on TRILUX LSC. Non-specific binding, defined as binding in the presence of […] cold (i.e. non-radiolabeled) ligand: (2S)-3-[3-[2-oxo-3-[3-(methoxy)phenyl]imidazolidin-1-yl]phenyl]-2-[(3R)-pyrrolidin-3-yl]propanoic acid hydrochloride (prepared essentially as described in WO 2020/247429) was subtracted to determine specific binding. Data were analyzed by fitting to a standard single site binding model and the IC50 for the Example test compound was determined. […]

pIC50: −log10 of the molar value. Where a name gives a salt, the structure may show the parent alone.

What is called pIC50 is the negative decadic logarithm of the IC50, by convention in mol/L. On to `COc1cc(F)cc(CNc2cccc(C[C@H](C(=O)O)[C@H]3CCNC3)c2)c1` [Example 6, (2S)-3-[3-[[(3-Fluoro-5-methoxy-phenyl)methyl]amino]phenyl]-2-[(3R)-pyrrolidin-3-yl]propanoic acid;hydrochloride], for which the pIC50 was 8.33.

(Values after US20250171399A1, “PYRROLIDINE COMPOUNDS” (Eli Lilly and Company, priority 2022, published 2025).)
